For two molecules, Kd results are on record in article PMC2690590, “Functional recombinant MHC class II molecules and high-throughput peptide-binding assays” (Immunome Research, 2009).

One assay concerns the target T1, DR4 (DRA*0101/DRB1*0401) (Homo sapiens, UniProt P01903+P01911, A100K/A169T/F76Y/I96L/K127E/L162R/M171V/N62H/P40V/Q125Y/R42H/S133A/S149N/S66Y/V115G/V209L/W38E).
T1 construct: DRA*01011-181LZFos; DRB1*04011-190LZJunBSP; made in house
Nature of the assay: Direct LOCI peptide-MHC-II binding assay, DR4.

A further assay has as its target T2, DR3 (DRA*0101/DRB1*0301) (Homo sapiens, UniProt P01903+P01911, A100K/A102G/A103R/A169T/F55Y/I96L/K41T/L162R/M171V/P40S/Q125H/Q178H/Q39Y/R42S/S66N/T106N/T262R/W38E/Y61H).
T2 construct: DRA*01011-181LZFos; DRB1*03011-190LZJunBSP; made in house
Nature of the assay: Direct LOCI peptide-MHC-II binding assay, DR3.

Assay [1] addresses T3, DRB3*0301 (DRA*0101/DRB3*0301) (Homo sapiens, UniProt P01903+P79483, A169T/A212P/D57E/G115V/L67V/Q178H/R103Q/R40L/Y55F).
T3 construct: DRA*01011-181LZFos; DRB3*03011-190LZJunBSP; made in house
Kind of assay: Direct LOCI peptide-MHC-II binding assay, DRB3*0301.

Assay [2] deals with DP401 (DPA1*0103/DPB1*0401) (Homo sapiens, UniProt P04440+P20036). Nature of the assay: Direct LOCI peptide-MHC-II binding assay, DP401.
The target of assay [3] is T4, DRB1*0813 (DRA*0101/DRB1*0813) (Homo sapiens, UniProt P01903+P01911, A100R/A103L/A169T/F76Y/H45Y/I96L/K41T/L162R/M171V/P40S/Q125H/Q178H/Q39Y/Q99D/R218S/R42G/S66Y/V115G/W38E).
T4 construct: DRA*01011-181LZFos; DRB1*08131-190LZJunBSP; made in house
Nature of the assay: Direct LOCI peptide-MHC-II binding assay, DRB1*0813.

Where no end group is shown, it is not given here.

Chain of DP401 (DPA1*0103/DPB1*0401) (P20036 with tags, fused parts or gaps C154S): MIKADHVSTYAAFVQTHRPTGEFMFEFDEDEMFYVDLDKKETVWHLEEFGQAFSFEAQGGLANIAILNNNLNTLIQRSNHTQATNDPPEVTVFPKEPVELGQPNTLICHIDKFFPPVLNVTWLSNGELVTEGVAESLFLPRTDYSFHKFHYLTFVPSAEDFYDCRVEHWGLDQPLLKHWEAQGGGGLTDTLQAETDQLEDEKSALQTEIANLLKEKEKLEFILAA
Chain of DP401 (DPA1*0103/DPB1*0401) (as listed by the source): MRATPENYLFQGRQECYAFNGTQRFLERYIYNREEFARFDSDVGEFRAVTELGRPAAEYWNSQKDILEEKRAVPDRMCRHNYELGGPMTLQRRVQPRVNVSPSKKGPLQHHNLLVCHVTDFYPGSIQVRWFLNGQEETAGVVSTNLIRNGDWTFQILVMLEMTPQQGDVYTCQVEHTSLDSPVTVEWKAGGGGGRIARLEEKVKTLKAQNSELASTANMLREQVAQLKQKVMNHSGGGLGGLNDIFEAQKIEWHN

With WMARRHAER [Brucella], the Kd (on DR4 (DRA*0101/DRB1*0401); at DR3 (DRA*0101/DRB1*0301); in assay [1]; in assay [2]) was > 5 µM throughout.

On to `CSCC[C@H](NC(=O)[C@@H](N)Cc1ccccc1)C(=O)N[C@@H](CO)C(=O)N[C@@H](CCCNC(=N)N)C(=O)N[C@@H](CCCCN)C(=O)N[C@@H](CC(C)C)C(=O)N[C@@H](Cc1c[nH]cn1)C(=O)N[C@@H](CCCNC(=N)N)C(=O)N[C@@H](Cc1ccc(O)cc1)C(=O)O` [Hantaan], for which the Kd (in general, the constant that tells how readily two partners part at equilibrium) is > 5 µM on DR4 (DRA*0101/DRB1*0401), 0.021 µM in assay [3], 0.279 µM on DR3 (DRA*0101/DRB1*0301) and > 5 µM in assay [2].
